{"source": "patent US20230184743A1", "about": "“SCREENING METHODS TO IDENTIFY SMALL MOLECULE COMPOUNDS THAT PROMOTE OR INHIBIT THE GROWTH OF CIRCULATING TUMOR CELLS, AND USES THEREOF” (University of Southern California, priority 2020, published 2023)", "key": {"[1]": {"test_system": "single CTCs from 4 patient-derived CTC lines (BRx07, BRx42, BRx50, and BRx68)", "test": "Validation of candidate compounds: single CTC proliferation over 24 days (AUC)", "format": "cell-based, human", "method": "(§1) Cell culture. CTC lines were previously derived from metastatic breast cancer patients. CTC lines were cultured in ultra-low attachment plates with RPMI 1640 medium, supplemented with EGF (20 ng/mL), bFGF (20 ng/mL), 1×B27 and 1× antibiotic/antimycotic, in 4% 02 and 5% CO2. Single CTCs were cultured in GravityTRAP™ ULA 96 well Plates (PerkinElmer). Wells on the edges of the plates were not used to avoid influence from evaporation. Media with fresh compounds were exchanged every 3 days by inserting pipet tips onto the platform of the wells to prevent accidentally aspirating suspended CTCs at the bottom. CTC numbers were counted manually under an inverted microscope every 6 days.\nFACS sorting. Cells were pelleted and resuspended into single cell suspension in 1% BSA in PBS buffer with 7-AAD. Live single CTCs were sorted directly into 96-well GravityTRAP™ ULA Plates using a MoFlo cell sorter (Beckman Coulter). An inverted microscope was used to manually confirm that there was 1 CTC per well, 1 hour after sorting.\nCompounds screening. Compounds were from the StemSelect library obtained from the Choi Family Therapeutic Screening Facility at the Eli and Edythe Broad CIRM Center for Regenerative Medicine and Stem Cell Research at USC. Each compound was given a code to ensure unbiased assessment and blinded to the investigators. Compound information is listed in Appendix, at Table 1 of US Provisional Application No. U.S. 62/990,445, incorporated herein by reference). In the first-round screening, compounds were used with […] concentration. Stocks of compounds (10 mM concentration in DMSO) were stored in aliquots at −80° C. All compounds were thawed and refrozen for a maximum of 2 times. In the second-round validation, fresh compounds were dissolved in DMSO (Millipore sigma), and aliquots were stored at −20° C. and used only once without refreezing. Only wells started from single cells on day 0 after sorting were used in the screening experiment. Data collection was done in batches.\n(§2) Statistical analysis. […] AUC was calculated for each well in each batch, by plotting days in the x-axis and the corresponding number of cells in the y-axis, then drawing a line to connect the number of cells from the starting count day to the next count day until the end day, and finally calculating the area under this line as the sum of areas of trapezoids. […] Statistical tests were performed using R. For absolute number of cells quantification, total number of cells at end of experiment in each well in each batch was compared between treated cells and untreated control and significance was analyzed with Student t test. For other experiments, data were analyzed with Student t test, and represent the means±SEM of at least triplicate samples or averages ±SD of independent analyses, as indicated. […]"}, "[2]": {"test_system": "breast cancer circulating tumor cell (CTC)", "test": "Breast cancer CTC growth screen", "format": "cell-based, human", "conditions": "added at 1 uM", "method": "Using the assay system described herein CTC were contact with a panel of small molecule drugs and the effect of the drugs on cell growth, migration, proliferation and gene expression was measured. […] This was initially found in a breast cancer circulating tumor cell (CTC) growth screen."}, "[3]": {"test_system": "MCF7 cells, MDA-MB-231 cells, T47D cells", "test": "Senescence assay: β-galactosidase activity", "format": "cell-based", "conditions": "various concentrations", "from_the_text": "(A) MCF7 cells. (B) MDA-MB-231 cells. (C) T47D cells.\nBecause an arrested state in which the cell remains viable, are not stimulated to divide by serum or passage in culture, a specific cell cycle profile is illicited that differs from most damage-induced arrest processes or contact inhibition. Characteristics of senescence cells include an enlarged cell size, expression of pH-dependent β-galactosidase activity, and an altered pattern of gene expression. To determine these characteristics, CTC cells were cultured with a compound of Formula II or cx-4945 (Silmitasertib) at various concentrations and β-galactosidase activity was measured."}, "BRx42": {"test_system": "BRx42", "test": "Single CTC proliferation over 24 days (AUC), BRx42 line", "format": "cell-based, human", "method": "as §1\n(§3) FACS sorting. […]\nas §2, with “test.” for “test. For other experiments, data were analyzed with Student t test, and represent the means±SEM of at least triplicate samples or averages ±SD of independent analyses, as indicated.”"}, "BRx68-GFP+ cells": {"test_system": "BRx68-GFP+ cells", "test": "RNA-seq analysis of pools of growing single cell clones", "format": "cell-based, human", "conditions": "day 6; NAC 0.3 mM, P4D8 1 μM", "method": "RNA-seq analysis. BRx68-GFP+ cells were sorted, with 1 cell per well, using the MoFlo cell sorter (Beckman Coulter). Single cells were cultured in the presence of CTC media containing either 1 μM of P1C2, P4D8, or P1G7, or 0.3 mM of NAC or a combination of 1 μM of P1C2 and 0.3 mM of NAC. Cells cultured in media containing DMSO served as a control. All cells were cultured for either 6 days or 13 days at 37° C., 5% CO2 and 4% O2, and media was changed every 3 days. For both day 6 and day 13 groups, only clones with more than 3 cells at day 6 were harvested and pooled to a maximum of 50 cells. […] Libraries were sequenced on an Illumina NextSeq500 to obtain 75 bp-long single-end reads.\nRNA-sequencing reads were trimmed for Nextera and Illumina adapter sequences using Trim Galore under default parameters. Trimmed reads were then mapped to the human genome build GRCh37 from Ensembl (ftp:/][/ftp.ensembl.org/pub/grch37/current/fasta/homo_sapiens/dna/Homo_sapiens.GRCh37.dna_sm.primary_as sembly.fa.gz) using STAR under optimized parameters for single-end sequenced data. Aligned reads were then counted via feature-Counts and piped into DESeq2 for normalization to sequencing depth and downstream analysis. […]"}, "single BRx68 cells": {"test_system": "single BRx68 cells", "test": "Single CTC proliferation over 24 days (AUC), BRx68 line", "format": "cell-based, human", "method": "as §1, §3\nas §2, with “test.” for “test. For other experiments, data were analyzed with Student t test, and represent the means±SEM of at least triplicate samples or averages ±SD of independent analyses, as indicated.”"}}}
{"molecule": "COc1cc(Nc2ncc3ccn(-c4cccc(CCC#N)c4)c3n2)cc(OC)c1OC", "note": "[Formula II, 3-(3-(2-(3,4,5-Trimethoxy-phenylamino)-7H-pyrrolo[2,3-d]pyrimidin-7-yl)phenyl)propionitrile]", "values": [{"measurement": "proliferation of single CTCs (AUC measurement)", "setting": "[1]; 4 different CTC lines over 24 days", "result": "inhibition of the proliferation"}, {"measurement": "CTC growth", "setting": "[2]", "result": "stopped growing"}, {"measurement": "induced senescence (β-galactosidase activity) relative to CX-4945", "setting": "[3]", "result": "3-4 fold"}]}
{"molecule": "N#C/C(=C\\c1ccc(-c2cc(Cl)ccc2Cl)o1)C(=O)Nc1cccc2ncccc12", "note": "[P1G3, AGK2]", "values": [{"measurement": "single cell growth", "setting": "BRx42", "result": "promote single cell growth"}]}
{"molecule": "CCNCc1cc(C(C)(C)C)c(O)c(C(C)(C)C)c1", "note": "[P4D8, LY 231617]", "values": [{"measurement": "single cell growth", "setting": "[1]; other lines (than BRx68)", "result": "inhibit growth"}, {"measurement": "lipid metabolism pathway enrichment (IPA of differentially expressed genes) compared with control", "setting": "BRx68-GFP+ cells", "result": "enriched"}, {"measurement": "single cell growth", "setting": "single BRx68 cells", "result": "promote single cell growth"}]}
